We go through one compound from US20210338715A1, “PHARMACEUTICAL COMPOSITION FOR THE TREATMENT OF COVID-19” (RADINOR, LLC, priority 2020, published 2021).

Data set [1] in a line: Side effects of systemic therapeutic use. It is filed as in vivo, human. The settings on record: systemic therapeutic use in the context of the invention. The text has this: In line with the reaction kinetic knowledge from the topical application of ClO2 solutions by Noszticzius et al., it was possible to confirm in the course of the present invention that, contrary to the earlier fears of parts of the professional world, a systemic therapeutic use of reactive oxidative species such as ClO2 need not in any way be accompanied by undesirable or even damaging effects.

The next data set deals with human coronavirus. As to conditions: cited from earlier work.
The conditions of data set [2]: humans; intake over a period of 14 days; cited from earlier work.
For the next data set, the system named is coronavirus. As to conditions: cited from earlier work.

For the compound `[O][Cl+][O-]` [chlorine dioxide], the “serious side effects or deaths” value in data set [1] is “no such effects have come to light”. Also, the “effectiveness against human coronavirus” value with human coronavirus was “effective against human coronavirus”. Moreover, in data set [2], the “lethal dose LD50” value is given as 292 mg per kilogram of body weight per day. Also, in the data set with coronavirus, the effectiveness against coronavirus result is given as “effective against coronavirus”.
